Reference: patent US9855281B2, “Libido-enhancing therapeutic and use” (Scott Freeman Consultant, LLC, priority 2013, dated 2018)
“Also recorded” adds a separate entry of the source.

Key:
male rats = experiment: In vivo libido stimulation assessment (mounts of rat couples); design: species or system Rattus novergicus, Wistar; details: for mount kinetics profile along the night: FIGS. 12A-12F, time after coupling
Description: Female and male rats (Rattus novergicus) Wistar strain, with 200-280 g and 8-12 weeks old, were purchased from University of São Paulo Central Animal Care Unity. They were kept in controlled environment, including dark-light periods (12 hours each), temperature (22° to 25° C.), and with free access to water and food.
Female Wistar rats, weighing about 250 g, were ovariectomized. The procedure initiated inducing general anesthesia with Dopalen (Ketamin 70 mg/kg) and Anasedan (Xilazin 12 mg/kg), then abdominal wall was […] by the linea alba region, ovaries location, ligation of vessels supplying the ovaries and the procedure was completed with ovariectomy, itself, as well as the suture of the abdominal wall and skin. After surgery the animals received analgesic (tramadol 2 mg/kg), antibiotic (enrofloxacin, 10 mg/kg) and anti-inflammatory (Maxicam—2 mg/kg) for at least one week, or more if necessary.
Pseudo-estrus inducing. The females received estradiol (0.2 mg/day) subcutaneously for two weeks after ovariotomoy for pseudo-estrus state inducing. This condition was evaluated by vaginal smears each two days after estradiol treatment beginning. Sterile cotton-tipped swabs wetted in distilled water were gently and quickly introduced into the vaginal orifice, carefully rotated (one twist) against the vaginal wall. Rats were not anesthetized during smear collection. Afterwards, the collected sample of vaginal epithelial cells was placed on glass slides, dried at 37° C., and fixed in an ethanol-ether solution (1:1) for one minute.
The slides were then examined under light microscopy. Only females in pseudo-estrus conditions were used for libido stimulation assessment (PACCOLA et al, 2013).
Libido stimulation assessment. For libido stimulation assessments, first male rats, weighing about 250-280 g, had their penis anesthetized with 2% lidocaine by topical route 10 minutes before treatment. The three drugs were administered orally at 50 mg/kg each two days for six days (each rat received three doses). Nandrolone (IM) was used as the positive control group while olive oil and water were used as negative controls (orally administrated), as described below in TABLE 2. After one hour of treatment, couples were put together in a box, and a video camera with night vision was adequately positioned to encompass all the groups in the video, recording overnight the matches.
Analysis of the videos was performed according to the following parameters: time to first mating, duration of mounts, and quantity of mounts.
The libido studies focused the investigation in how drugs would stimulate male rats to increase matching. Considering that sexual activity in animals is related with reproduction and not only with pleasure, assessment of increase desire is particular subjective. To ensure that the observations were related with Central Nervous System modulation, 2% Lidocaine was topically applied at penis glans, to avoid any local stimulation.
The animals were treated each two days with 50 mg/Kg of test drugs (given orally), water and olive oil as negative control (given orally) and nandrolone (IM).

human = experiment: Accidental physical contact of a human with the compositions (Example 1); format: in vivo; details: accidental physical contact with Formulas (I), (II) and (III) together while synthesizing
Excerpt: A human came in physical contact with the compositions of the libido-enhancing therapeutics of Formula (I), Formula (II), and Formula (III) by accident while synthesizing the compositions.

[1] = rats, 50 mg/Kg orally, nandrolone IM

Question: `CC(=O)O[C@H]1CCC2C3CC[C@H]4CC(=O)CC[C@H]4C3CC[C@@]21C` (stereo partly drawn) [Formula (I), (5S,10R,13S,17S)-13-methyl-3-oxohexadecahydro-1H-cyclopenta[a]phenanthren-17yl acetate] was tested. Which “total number of mounts after each treatment” value (male rats; FIG. 10, 50 mg/Kg orally each two days, three doses, nandrolone IM, compared with controls and other drugs) did it give?
Answer: The value was “significantly increased”.

Question: And the “number of mounts per hour, difference to nandrolone” value (male rats; FIG. 11, 50 mg/Kg orally, nandrolone IM)?
Answer: The value was “more than twice”.

Question: And the “mount kinetics profile along the night” value (male rats; 50 mg/Kg orally, nandrolone IM, listed as CAS 5138-34-1, 50 mg/kg)?
Answer: Its value is “low activity at the first three hours after coupling; also recorded: intense and sustainable activity was achieved after the third hour until the seventieth hour of observation”.

Question: And the “mount kinetics profile along the night” value (male rats; 50 mg/Kg orally, nandrolone IM, listed as CAS 5238-34-1, 50 mg/kg)?
Answer: Its value is “took a long time to have some effect”.

Question: What about the “stress or fatigue after each intercourse” value (male rats; rats, 50 mg/Kg orally) of the same compound?
Answer: The value was “no kind of stress of fatigue was observed”.

Question: And the libido stimulation (male rats; [1])?
Answer: The libido stimulation was “effective and sustainable late libido stimulation for greater than seven hours”.

Question: What about the arousal and libido (human) of the same compound?
Answer: The arousal and libido was “weekend-long period of arousal and increased libido”.

Question: With `CC(=O)O[C@H]1CCC2C3CC[C@H]4C[C@@H](O)CC[C@H]4C3CC[C@@]21C` (stereo partly drawn) [Formula (II), (3S,5S,10R,13S,17S)-3-hydroxy-13-methylhexadecahydro-1H-cyclopenta[a]phenanthren-17yl acetate] as the compound, how does the “mount kinetics profile along the night” value (male rats; 50 mg/Kg orally, nandrolone IM) read?
Answer: The value was “total decrease of activity after 2 hours coupling”.

Question: And the arousal and libido (human)?
Answer: The arousal and libido was “weekend-long period of arousal and increased libido”.

Question: For `C[C@]12CCC3C(CC[C@H]4CC(=O)CC[C@H]34)C1CC[C@@H]2O` (stereo partly drawn) [Formula (III), (5S,10S,13S,17S)-17-hydroxy-13-methyltetradecahydro-1H-cyclopenta[a]phenanthren-3(2H)-one], which “mount kinetics profile along the night” value (male rats; 50 mg/Kg orally, nandrolone IM) is on record?
Answer: The value was “few mounts in subsequently hours”.

Question: And the arousal and libido (human)?
Answer: Its arousal and libido is “weekend-long period of arousal and increased libido”.

Question: For `C[C@]12CC[C@H]3[C@@H](CCC4=CC(=O)CC[C@@H]43)[C@@H]1CC[C@@H]2O` [Nandrolone, reference compound], which “mount kinetics profile along the night” value (male rats; 50 mg/Kg orally, nandrolone IM) is on record?
Answer: The value was “low stimulation at the first three hours with a peak of activity at the fourth hour retuning to baseline (zero activity) at the sixth hour”.

Question: What about the libido stimulation (male rats; [1]) of the same compound?
Answer: Its libido stimulation is “enhance libido early (hours)”.
